Where “and” joins values, the source holds several entries; their conditions need not be identical. Equal values may be shown once. Marks after values point to notes of the source that are not given here.
Test: Safety and tolerability: adverse events per CTCAE v3, dose-limiting toxicity, phase 1 study
Assay type: in vivo, human (Japanese patients with solid tumors)
Procedure: A standard 3 + 3 design determined the dose level assignment. Patients were assigned to one of four sequential dose cohorts of once-a-day dose regimen of oral linifanib: 0.05, 0.10, 0.20, or 0.25 mg/kg, administered in the morning. […] Dose-limiting toxicity (DLT) was defined as Grade 4 neutropenia lasting >7 days, Grade 4 thrombocytopenia or decreased hemoglobin, Grade 3 or greater thrombocytopenia (if blood transfusion was required), febrile neutropenia, non-hematological toxicity except for manageable nausea, vomiting, anorexia, diarrhea, constipation or electrolyte abnormality, or a toxicity that required suspension of study drug for >7 days.
Patients self-administered linifanib once daily, on a 21-day cycle after fasting, and treatment continued until disease progression or intolerable toxicity. […] The initial oral dose, 2.5–25.0 mg in increments of 2.5 mg, was determined by the patients’ weights. […] The dose was reduced by 5.0 mg for patients ≥86 kg in the 0.10 mg/kg cohort, for patients in the 0.20 mg/kg cohort who were ≥81 kg at the first reduction and 61–80 and ≥96 kg at the 2nd reduction, and for patients in the 0.25 mg/kg cohort who were ≥66 kg at the first reduction and ≥86 kg at the second reduction. Patients were discontinued if they required dose reduction, specified by cohort: Any reduction (0.05 mg/kg cohort); >1 reduction (0.10 mg/kg cohort, and patients ≤31 kg in the 0.20 mg/kg cohort with an initial 5 mg dose); >2 reductions (0.25 mg/kg cohort, and patients ≥32 kg in the 0.20 mg/kg cohort with an initial ≥7.5 mg dose).
Baseline evaluations included physical examination, body weight, vital signs, 12-lead electrocardiogram, ECOG PS assessment, pregnancy test, laboratory tests, and multiple-gated acquisition scan/echocardiogram. Tumor response and/or disease progression was assessed by computerized tomography (CT) scan or magnetic resonance imaging (MRI) per RECIST [20] at screening and on Day (D) 1 of every second cycle prior to the subsequent treatment period, until tumor progression or until final visit. Complete response and partial response (PR) were defined according to RECIST [20]; objective response rate (ORR) was defined as the proportion of patients with best response of PR or CR among the study population. Safety assessments included laboratory test results and adverse events (AEs), which were graded according to CTCAE v3 [18] and coded by medical dictionary of regulatory activities (MedDRA) 1.0.

For `Cc1ccc(F)c(NC(=O)Nc2ccc(-c3cccc4[nH]nc(N)c34)cc2)c1` [linifanib, N-(4-(3-amino-1H-indazol-4-yl)phenyl)-N’-(2-fluoro-5-methylphenyl)urea], the “Neutropenia, linifanib-related AE, patients” value (shortened to “Neutropenia … patients”) (0.20 mg/kg n = 3, G2) was 2, the “Palmar-plantar erythrodysaesthesia, linifanib-related AE, patients” value (from here on “Palmar-plantar erythrodysaesthesia”) (0.20 mg/kg n = 3, G2) was 3 and the “Thrombocytopenia, linifanib-related AE, patients” value (shortened to “Thrombocytopenia … patients”) (0.20 mg/kg n = 3, G2) was 2. The “Weight decreased, linifanib-related AE, patients” value (“Weight decreased” for short) (0.20 mg/kg n = 3, G2) was 2, the “Diarrhea, linifanib-related AE, patients” value (0.20 mg/kg n = 3, G3) was 1 and the “Hypertension, linifanib-related AE, patients” value (“Hypertension … patients” below) (0.20 mg/kg n = 3, G3) was 1. For the same molecule, the “Proteinuria, linifanib-related AE, patients” value (“Proteinuria … patients” for short) (0.20 mg/kg n = 3, G3) was 1, the dose-limiting toxicity observed (0.25 mg/kg cohort, one patient, dose interruption >7 days, discontinuation on D29) was “Grade 1 T-wave inversion” and the “Grade 3 linifanib-related AEs” value (0.25 mg/kg dose) was “four”. The “ALT increased, linifanib-related AE, patients” value (“ALT increased” for short) (0.25 mg/kg n = 6, G1) was 3, the “AST increased, linifanib-related AE, patients” value (0.25 mg/kg n = 6, G1) was 6 and the “Blood ALKP increased, linifanib-related AE, patients” value (0.25 mg/kg n = 6, G1) was 4. The “Blood TG increased, linifanib-related AE, patients” value (from here on “Blood TG increased”) (0.25 mg/kg n = 6, G1) was 2, the “Blood TSH increased, linifanib-related AE, patients” value (shortened to “Blood TSH increased”) (0.25 mg/kg n = 6, G1) was 1 and the “Blood cholesterol increased, linifanib-related AE, patients” value (0.25 mg/kg n = 6, G1) was 2. For the same molecule, the “Blood urine present, linifanib-related AE, patients” value (0.25 mg/kg n = 6, G1) was 4, the “Fatigue, linifanib-related AE, patients” value (0.25 mg/kg n = 6, G1) was 4 and the “GGT increased, linifanib-related AE, patients” value (0.25 mg/kg n = 6, G1) was 3. For the same molecule, the “Leukopenia, linifanib-related AE, patients” value (“Leukopenia … patients” for short) (0.25 mg/kg n = 6, G1) was 3, the “Neutropenia … patients” value (0.25 mg/kg n = 6, G1) was 2 and the “Proteinuria … patients” value (0.25 mg/kg n = 6, G1) was 1. The “Rash, linifanib-related AE, patients” value (0.25 mg/kg n = 6, G1) was 6, the “Thrombocytopenia … patients” value (0.25 mg/kg n = 6, G1) was 2 and the “Weight decreased” value (0.25 mg/kg n = 6, G1) was 1. The “T-wave abnormality, linifanib-related AE, patients” value (0.25 mg/kg n = 6, G1, dose-limiting toxicity) was 1^a, the “Anorexia, linifanib-related AE, patients” value (0.25 mg/kg n = 6, G2) was 2 and the “Blood TG increased” value (0.25 mg/kg n = 6, G2) was 1. For the same molecule, the “Blood TSH increased” value (0.25 mg/kg n = 6, G2) was 1, the “Diarrhea, linifanib-related AE, patients” value (0.25 mg/kg n = 6, G2) was 2 and the “Fatigue, linifanib-related AE, patients” value (0.25 mg/kg n = 6, G2) was 1. For the same molecule, the “Hypertension … patients” value (0.25 mg/kg n = 6, G2) was 6, the “Leukopenia … patients” value (0.25 mg/kg n = 6, G2) was 2 and the “Neutropenia … patients” value (0.25 mg/kg n = 6, G2) was 2. For the same molecule, the “Palmar-plantar erythrodysaesthesia” value (0.25 mg/kg n = 6, G2) was 3, the “Proteinuria … patients” value (0.25 mg/kg n = 6, G2) was 2 and the “Thrombocytopenia … patients” value (0.25 mg/kg n = 6, G2) was 2. For the same molecule, the “Weight decreased” value (0.25 mg/kg n = 6, G2) was 1, the “ALT increased” value (0.25 mg/kg n = 6, G3) was 1 and the “Neutropenia … patients” value (0.25 mg/kg n = 6, G3) was 1. The “Proteinuria … patients” value (0.25 mg/kg n = 6, G3) was 2, the “dose reductions or interruptions for hypertension, neutropenia, or leucopenia” value (18 patients) was “no dose reductions or interruptions” and the “ALT increased” value (All patients N = 18, any grade) was 10 (56) n (%). The “AST increased, linifanib-related AE, patients” value (All patients N = 18, any grade) was 13 (72) n (%), the “Anorexia, linifanib-related AE, patients” value (All patients N = 18, any grade) was 7 (39) n (%) and the “Blood ALKP increased, linifanib-related AE, patients” value (All patients N = 18, any grade) was 8 (44) n (%). The “Blood TG increased” value (All patients N = 18, any grade) was 11 (61) n (%), the “Blood TSH increased” value (All patients N = 18, any grade) was 8 (44) n (%) and the “Blood cholesterol increased, linifanib-related AE, patients” value (All patients N = 18, any grade) was 10 (56) n (%). For the same molecule, the “Blood urine present, linifanib-related AE, patients” value (All patients N = 18, any grade) was 9 (50) n (%), the “Diarrhea, linifanib-related AE, patients” value (All patients N = 18, any grade) was 8 (44) n (%) and the “Fatigue, linifanib-related AE, patients” value (All patients N = 18, any grade) was 9 (50) n (%). For the same molecule, the “GGT increased, linifanib-related AE, patients” value (All patients N = 18, any grade) was 8 (44) n (%), the “Hypertension … patients” value (All patients N = 18, any grade) was 17 n (%) and 17 (94) n (%) and the “Leukopenia … patients” value (All patients N = 18, any grade) was 10 (56) n (%). For the same molecule, the “Neutropenia … patients” value (All patients N = 18, any grade) was 11 (61) n (%), the “Palmar-plantar erythrodysaesthesia” value (All patients N = 18, any grade) was 9 (50) n (%) and the “Proteinuria … patients” value (All patients N = 18, any grade) was 10 (56) n (%). For the same molecule, the “Rash, linifanib-related AE, patients” value (All patients N = 18, any grade) was 11 (61) n (%), the “T-wave abnormality, linifanib-related AE, patients” value (All patients N = 18, any grade) was 2 (11) n (%) and the “Thrombocytopenia … patients” value (All patients N = 18, any grade) was 8 (44) n (%). The “Weight decreased” value (All patients N = 18, any grade) was 10 (56) n (%), the tolerability (Japanese patients with solid tumors, dose range 0.05–0.25 mg/kg) was “well tolerated” and the “number of DLTs reported” value (all cohorts, 18 patients) was “Two”. For the same molecule, the “Grade 4 or 5 AEs” value (all doses, 18 patients) was “no Grade 4 or 5 AEs” and the “patients who discontinued due to AEs” value (of 16 who discontinued) was “two”.

From article PMC3362725, “An open-label, phase 1 study evaluating safety, tolerability, and pharmacokinetics of linifanib (ABT-869) in Japanese patients with solid tumors” (Cancer Chemotherapy and Pharmacology, 2012)
